# Source: the supplement of paper PMC10307832
# Assays:
# Assay in all cases: relative viability (nuclei count vs DMSO), 5 days (fraction); higher = more cells survive
# COR-L23 = system: COR-L23
# Method in brief: (§1)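 Relative viability is defined as nuclei in treated wells over nuclei in vehicle wells. Duplicate plates were run and medians reported. Lung cancer cell lines in 1536-well plates were dosed by pin tool one day after seeding, with one drug or with a fixed anchor-drug dose plus five library-drug doses (not always all listed) in √10 steps, and nuclei were counted after 5 days.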
# NCI-H2085 = system: NCI-H2085
# Method in brief: as §1
# NCI-H1563 = system: NCI-H1563
# Method in brief: as §1
# LU99A = system: LU99A
# Method in brief: as §1
# NCI-H1395 = system: NCI-H1395
# Method in brief: as §1
# NCI-H1793 = system: NCI-H1793
# Method in brief: as §1
# HCC-827 = system: HCC-827
# Method in brief: as §1
# NCI-H1944 = system: NCI-H1944
# Method in brief: as §1
# H3255 = system: H3255
# Method in brief: as §1
# LCLC-103H = system: LCLC-103H
# Method in brief: as §1
# NCI-H650 = system: NCI-H650
# Method in brief: as §1
# NCI-H520 = system: NCI-H520
# Method in brief: as §1
# NCI-H1651 = system: NCI-H1651
# Method in brief: as §1
# NCI-H2023 = system: NCI-H2023
# Method in brief: as §1
# NCI-H838 = system: NCI-H838
# Method in brief: as §1
# EMC-BAC-2 = system: EMC-BAC-2
# Method in brief: as §1
# NCI-H2405 = system: NCI-H2405
# Method in brief: as §1
# SK-MES-1 = system: SK-MES-1
# Method in brief: as §1
# EPLC-272H = system: EPLC-272H
# Method in brief: as §1
# NCI-H2087 = system: NCI-H2087
# Method in brief: as §1
# HCC-44 = system: HCC-44
# Method in brief: as §1
compound,measurement,setting,value
COc1cc2nccc(Oc3ccc(NC(=O)Nc4cc(C)on4)c(Cl)c3)c2cc1OC [Tivozanib] + C[C@]1(O)C[C@@H](c2nc(-c3ccc4ccc(-c5ccccc5)nc4c3)c3c(N)nccn32)C1 [Linsitinib] (partner 1 µM),relative viability,COR-L23; first compound 0.005 µM,0.848
same,relative viability,COR-L23; first compound 0.01581 µM,0.886
same,relative viability,COR-L23; first compound 0.05 µM,0.994
same,relative viability,COR-L23; first compound 0.1581 µM,0.887
same,relative viability,COR-L23; first compound 0.5 µM,0.819
same,relative viability,NCI-H2085; first compound 0.005 µM,0.917
same,relative viability,NCI-H2085; first compound 0.01581 µM,0.854
same,relative viability,NCI-H2085; first compound 0.05 µM,1.06
same,relative viability,NCI-H2085; first compound 0.1581 µM,0.781
same,relative viability,NCI-H2085; first compound 0.5 µM,0.877
same,relative viability,NCI-H1563; first compound 0.005 µM,1.19
same,relative viability,NCI-H1563; first compound 0.01581 µM,1.32
same,relative viability,NCI-H1563; first compound 0.05 µM,1.24
same,relative viability,NCI-H1563; first compound 0.1581 µM,1.12
same,relative viability,NCI-H1563; first compound 0.5 µM,1.22
same,relative viability,LU99A; first compound 0.005 µM,0.517
same,relative viability,LU99A; first compound 0.01581 µM,0.506
same,relative viability,LU99A; first compound 0.05 µM,0.581
same,relative viability,LU99A; first compound 0.5 µM,0.534
same,relative viability,NCI-H1395; first compound 0.005 µM,0.99
same,relative viability,NCI-H1395; first compound 0.01581 µM,1.1
same,relative viability,NCI-H1395; first compound 0.05 µM,1.26
same,relative viability,NCI-H1395; first compound 0.1581 µM,1.09
same,relative viability,NCI-H1395; first compound 0.5 µM,0.827
same,relative viability,NCI-H1793; first compound 0.005 µM,0.778
same,relative viability,NCI-H1793; first compound 0.01581 µM,0.954
same,relative viability,NCI-H1793; first compound 0.05 µM,0.774
same,relative viability,NCI-H1793; first compound 0.5 µM,1.19
same,relative viability,HCC-827; first compound 0.005 µM,0.969
same,relative viability,HCC-827; first compound 0.01581 µM,0.942
same,relative viability,HCC-827; first compound 0.05 µM,0.944
same,relative viability,HCC-827; first compound 0.1581 µM,1.04
same,relative viability,HCC-827; first compound 0.5 µM,0.965
same,relative viability,NCI-H1944; first compound 0.005 µM,1.14
same,relative viability,NCI-H1944; first compound 0.01581 µM,1.2
same,relative viability,NCI-H1944; first compound 0.05 µM,1.29
same,relative viability,NCI-H1944; first compound 0.1581 µM,1.1
same,relative viability,NCI-H1944; first compound 0.5 µM,1.21
same,relative viability,H3255; first compound 0.005 µM,0.965
same,relative viability,H3255; first compound 0.01581 µM,0.933
same,relative viability,H3255; first compound 0.05 µM,1.09
same,relative viability,H3255; first compound 0.1581 µM,1.05
same,relative viability,H3255; first compound 0.5 µM,0.891
same,relative viability,LCLC-103H; first compound 0.005 µM,1.01
same,relative viability,LCLC-103H; first compound 0.01581 µM,0.959
same,relative viability,LCLC-103H; first compound 0.05 µM,1.07
same,relative viability,LCLC-103H; first compound 0.1581 µM,1.21
same,relative viability,LCLC-103H; first compound 0.5 µM,1.12
same,relative viability,NCI-H650; first compound 0.005 µM,0.671
same,relative viability,NCI-H650; first compound 0.01581 µM,0.992
same,relative viability,NCI-H650; first compound 0.05 µM,0.859
same,relative viability,NCI-H650; first compound 0.1581 µM,0.736
same,relative viability,NCI-H650; first compound 0.5 µM,0.542
same,relative viability,NCI-H520; first compound 0.005 µM,0.838
same,relative viability,NCI-H520; first compound 0.01581 µM,0.966
same,relative viability,NCI-H520; first compound 0.05 µM,0.883
same,relative viability,NCI-H520; first compound 0.1581 µM,0.935
same,relative viability,NCI-H520; first compound 0.5 µM,0.821
same,relative viability,NCI-H1651; first compound 0.005 µM,0.929
same,relative viability,NCI-H1651; first compound 0.01581 µM,0.988
same,relative viability,NCI-H1651; first compound 0.05 µM,0.87
same,relative viability,NCI-H1651; first compound 0.1581 µM,0.949
same,relative viability,NCI-H1651; first compound 0.5 µM,0.963
same,relative viability,NCI-H2023; first compound 0.005 µM,0.612
same,relative viability,NCI-H2023; first compound 0.01581 µM,0.669
same,relative viability,NCI-H2023; first compound 0.05 µM,0.761
same,relative viability,NCI-H2023; first compound 0.1581 µM,0.671
same,relative viability,NCI-H2023; first compound 0.5 µM,0.715
same,relative viability,NCI-H838; first compound 0.005 µM,0.963
same,relative viability,NCI-H838; first compound 0.01581 µM,1.04
same,relative viability,NCI-H838; first compound 0.05 µM,1.11
same,relative viability,NCI-H838; first compound 0.5 µM,0.942
same,relative viability,EMC-BAC-2; first compound 0.005 µM,0.847
same,relative viability,EMC-BAC-2; first compound 0.01581 µM,0.787
same,relative viability,EMC-BAC-2; first compound 0.05 µM,0.844
same,relative viability,EMC-BAC-2; first compound 0.1581 µM,0.782
same,relative viability,EMC-BAC-2; first compound 0.5 µM,0.821
same,relative viability,NCI-H2405; first compound 0.005 µM,0.945
same,relative viability,NCI-H2405; first compound 0.01581 µM,0.996
same,relative viability,NCI-H2405; first compound 0.05 µM,0.943
same,relative viability,NCI-H2405; first compound 0.1581 µM,0.89
same,relative viability,NCI-H2405; first compound 0.5 µM,0.897
same,relative viability,SK-MES-1; first compound 0.005 µM,1.08
same,relative viability,SK-MES-1; first compound 0.01581 µM,1.07
same,relative viability,SK-MES-1; first compound 0.05 µM,1.05
same,relative viability,SK-MES-1; first compound 0.1581 µM,1.14
same,relative viability,SK-MES-1; first compound 0.5 µM,1.07
same,relative viability,EPLC-272H; first compound 0.005 µM,1.1
same,relative viability,EPLC-272H; first compound 0.01581 µM,1.14
same,relative viability,EPLC-272H; first compound 0.05 µM,1.17
same,relative viability,EPLC-272H; first compound 0.1581 µM,0.955
same,relative viability,EPLC-272H; first compound 0.5 µM,1.12
same,relative viability,NCI-H2087; first compound 0.005 µM,0.928
same,relative viability,NCI-H2087; first compound 0.01581 µM,0.922
same,relative viability,NCI-H2087; first compound 0.05 µM,0.926
same,relative viability,NCI-H2087; first compound 0.1581 µM,1.04
same,relative viability,NCI-H2087; first compound 0.5 µM,0.81
same,relative viability,HCC-44; first compound 0.005 µM,0.66
same,relative viability,HCC-44; first compound 0.01581 µM,0.687
same,relative viability,HCC-44; first compound 0.05 µM,0.641
same,relative viability,HCC-44; first compound 0.1581 µM,0.679
same,relative viability,HCC-44; first compound 0.5 µM,0.685
